# Test results as given in PMC10060354, “Discovery of a small molecule ligand of FRS2 that inhibits invasion and tumor growth” (Cellular Oncology, 2022).
# pEC50: −log10 of the molar value. Read-outs that look alike come from different tables or passages of the source.
# Tests used:
# [1] = system: HepG2 human hepatocellular carcinoma cells; assay: Cell viability (cytotoxicity, MTT) using HepG2; format: cell-based; details: for MEC: 72h, 3 replicas, NR = No response (Summary sheet); for MTT (MEC) Minimum effective concentration: 72 h, summary sheet
# Method: (§1) HepG2 human hepatocellular carcinoma cells were plated on 96-well tissue culture polystyrene plates for 24 h prior to dosing of the cells. The shortlisted hits were diluted in DMSO and serial dilutions are made 1% DMSO in growth media. Compounds at 8 concentrations in triplicate was then incubated for 72 h. Appropriate blanks and controls were run alongside the assay. One h prior to the end of the incubation period, the cells were loaded with MTT [yellow; 3-(4,5-dimethyl-2-thiazolyl)-2,5-diphenyl-2H-tetrazolium bromide], the plates were dried and re-solubilized using DMSO. The plates were then scanned at 570 nm using a plate reader.
# (§2) The minimum effective concentration was determined from the lowest concentration whose mean value exceeds the significance level, provided either a clear dose–response relationship was observed, or at least two consecutive concentration points were above the significance level.
# [2] = Cell viability (cytotoxicity, MTT) using HepG2; format: cell-based, human; details: human, HepG2 cells
# Method: as §1, §2
# [3] = CaCo-2 permeability (bi-directional); details: human
# Method: Caco-2 cells obtained from the ATCC were used between passage numbers 40—60. Cells were seeded onto Millipore Multiscreen Transwell plates at 1 × 10^5 cells/cm^2. The cells were cultured in DMEM and media was changed every two or three days. On day 20, the permeability study was performed. […] Cells were then incubated with HBSS at the desired pH in both apical and basolateral compartments for 40 min to stabilize physiological parameters.
# The fluorescent integrity marker lucifer yellow was also included in the dosing solution. Analytical standards were prepared from test compound DMSO dilutions and transferred to buffer, maintaining a 1% v/v DMSO concentration.
# For assessment of A-B permeability, HBSS was removed from the apical compartment and replaced with test compound dosing solution. The apical compartment insert was then placed into a companion plate containing fresh buffer (containing 1% v/v DMSO). For assessment of B-A permeability, HBSS was removed from the companion plate and replaced with test compound dosing solution. Fresh buffer (containing 1% v/v DMSO) was added to the apical compartment insert, which was then placed into the companion plate.
# Compound permeability was assessed in duplicate. Compounds of known permeability characteristics were run as controls on each assay plate.
# Test and control compounds were quantified by LC–MS/MS cassette analysis using a 7-point calibration with appropriate dilution of the samples. The starting concentration (C0) was determined from the dosing solution and the experimental recovery calculated from C0 and both apical and basolateral compartment concentrations. The integrity of the monolayer throughout the experiment was checked by monitoring lucifer yellow permeation using fluorimetric analysis.
# The permeability coefficient (Papp) for each compound was calculated from the following equation: Papp=dQ/dtC0×A where dQ/dt was the rate of permeation of the drug across the cells, C0 was the donor compartment concentration at time zero and A was the area of the cell monolayer. C0 was obtained from analysis of the dosing solution.
# Efflux ratio (ER) was calculated from mean A-B and B-A data. This was derived from: ER=Papp(B-A)Papp(A-B)
# DAOY cells = assay: Spheroid invasion assay (SIA), bFGF-induced collagen I invasion; format: cell-based, human; details: for functional activity in SIA (result in words): DAOY, bFGF-induced, 1, 5 and 10 µM
# Method: 1000—2500 cells/well in 100 μl were seeded in 96 well Corning® Spheroid microplate (CLS4520, Sigma-Aldrich) or in cell-repellent 96 well microplate (650,790, Greiner Bio-one). SIA and analysis was performed as described before. In brief: After spheroid formation (24 – 72 h after seeding), 70 µl medium was removed and replaced with the collagen mixture (2.5 mg/ml Pure Col Collagen I (Advanced Biomatrix)), DMEM 1x (from 10 × stock, Sigma, D2429) and 0.4% Sodium bicarbonate (Sigma, S8761)), resulting in a final collagen concentration of 1.75 mg/ml. Embedded spheroids were stimulated with bFGF (100 ng/ml if not otherwise stated), HGF (30 ng /ml) or EGF (20 ng/ml) and distance of invaded cells quantified 24 – 48 h after embedding. Compounds and BGJ398 were added in Dimethylsulfoxid (DMSO) and corresponding DMSO concentrations were used in control samples.
# [4] = Microsomal metabolic stability; format: in vitro ADME; details: human, pooled liver microsomes; for half-life at 1 µM: pH 7.4, liver microsomes, read-out: t1/2; for microsomal CLint at 1 µM: pH 7.4, read-out: Metabolic stability - Intrinsic clearance (CI)
# Method: Pooled liver microsomes were purchased from Xenotech (H0500) and were stored according to manufacturer’s instructions prior to use. […] A minus co-factor control incubation was included for each compound tested where 0.1 M phosphate buffer pH 7.4 was added instead of NADPH. Two control compounds were included with each species. All incubations were performed singularly for each shortlisted hit. Each compound was incubated for 0, 5, 15, 30 and 45 min. The minus co-factor was incubated for 45 min only. The reactions were stopped by transferring incubate into acetonitrile at the appropriate time points in a 1:3 ratio. The termination plates were centrifuged at 3000 rpm for 20 min at 4 °C to precipitate the protein. Following protein precipitation, the supernatant were combined in cassette of up to 4 compounds, internal standard for MS analysis was added and samples were analyzed using LC–MS/MS. From a plot of In peak area ratio (compound peak area/internal standard peak area) against time, the gradient of the lines were determined. Subsequently, half-life and intrinsic clearance were calculated using the following equations. Eliminationrateconstant(k)=(-gradient)Half-life(t1/2)(min)=0.693/kIntrinsicclearance(CLint)(μl/min/mgprotein)=Vx0.693/t1/2 where V = Incubation volume (µl) / Microsomal protein (mg)
# [5] = Semi-thermodynamic solubility; format: physicochemical; details: for solubility: Room Temp, Overnight, LC-MSMS; for solubility thermodynamic: overnight; for solubility thermodynamic / Solubility (class in words): summary sheet
# Method: In vitro ADME-T assays were performed by Cyprotex (Cyprotex Discovery, Cheshire, UK). […] The solution was agitated at ambient temperature overnight. The solutions were then centrifuged for 30 min at 3000 rpm at RT. The supernatant was removed and centrifuged for a further 30 min under the same conditions. An aliquot of the resulting supernatant was diluted in 50% methanol in water (containing an internal standard for MS analysis) prior to analysis by LC–MS/MS. […] These stocks were diluted in 50% methanol in water (containing an internal standard for MS analysis) prior to analysis by LC–MS/MS. The solubility of the shortlisted hits was calculated from a linear or quadratic fit of the standard curve.
# [6] = 72h, 3 replicas, NR = No response (Summary sheet), read-out: AC50
# [7] = Caco-2, Mean Papp A-B, Caco-2, summary sheet
# [8] = Caco-2, Mean Papp B-A, Caco-2, summary sheet
# [9] = Caco-2, pH 7.4, Mean % Recovery A2B, HBSS/HBSS, pH 7.4/7.4
# [10] = Caco-2, pH 7.4, Mean % Recovery B2A, HBSS/HBSS, pH 7.4/7.4
# [11] = Caco-2, pH 7.4, Mean Papp A2B, HBSS/HBSS, pH 7.4/7.4
# [12] = Caco-2, pH 7.4, Mean Papp B2A, HBSS/HBSS, pH 7.4/7.4
# [13] = Caco-2, pH 7.4, Papp A2B Replicate 1, HBSS/HBSS, pH 7.4/7.4
# [14] = Caco-2, pH 7.4, Papp B2A Replicate 1, HBSS/HBSS, pH 7.4/7.4
# [15] = Caco-2, pH 7.4, Papp B2A Replicate 2, HBSS/HBSS, pH 7.4/7.4
# [16] = 72 h, summary sheet, read-out: MTT (AC50) Conc at which 50% of maximum efficacy is reached
# [17] = PBS, aqueous buffer, thermodynamic from solid, read-out: Mean Solubility
# [18] = PBS, aqueous buffer, thermodynamic from solid, read-out: Solubility Replicate 1
# [19] = PBS, aqueous buffer, thermodynamic from solid, read-out: Solubility Replicate 3
# [20] = PBS, aqueous buffer, thermodynamic from solid, read-out: Solubility Replicate 4
# [21] = aqueous buffer, thermodynamic from solid, PBS
# [22] = PBS, aqueous buffer, thermodynamic from solid, read-out: Solubility Replicate 2
Compound,MEC [1] [µM],"AC50 at 72 h [2, 6] [µM]","efflux ratio at 120 min, 10 μM ([3]; Caco-2)","Papp A→B at 120 min, 10 μM [3, 7] [×10⁻⁶ cm/s]","Papp B→A at 120 min, 10 μM [3, 8] [×10⁻⁶ cm/s]","efflux ratio at 120 min, 10 μM ([3]; Caco-2, pH 7.4)","recovery at 120 min, 10 µM [3, 9] [%]","recovery at 120 min, 10 µM [3, 10] [%]","Papp A→B at 120 min, 10 μM [3, 11] [×10⁻⁶ cm/s]","Papp B→A at 120 min, 10 μM [3, 12] [×10⁻⁶ cm/s]","Papp A→B at 120 min, 10 μM [3, 13] [×10⁻⁶ cm/s]","Papp B→A at 120 min, 10 μM [3, 14] [×10⁻⁶ cm/s]","Papp B→A at 120 min, 10 μM [3, 15] [×10⁻⁶ cm/s]",functional activity in SIA (result in words) (DAOY cells),half-life at 1 µM [4] [min],microsomal CLint at 1 µM [4] [µL/min/mg],"solubility [5, 17] [µM]","solubility [5, 18] [µM]","solubility [5, 19] [µM]","solubility [5, 20] [µM]",other results
"N#CC(C#N)=NNc1cccc(Cl)c1 [carbonyl cyanide 3-chlorophenylhydrazone, reference compound]",4.22,6.66,,,,,,,,,,,,,,,,,,,
Oc1cc(Cl)cc2c1NC(c1ccccc1)C1CC=CC21 (stereo not drawn) [Compound 11],14.2,,36.9,0.3,11.1,36.9,30,8.82,0.3,11.1,0.3,11.5,10.6,reduced effect compared to its parent compound 3.18 at all concentrations,2.83,490,2.18,1.95,2.79,1.79,"MTT (MEC) Minimum effective concentration [1]: 14.2 µM; AC50 at 72 h [2, 16]: 19.6 µM; solubility thermodynamic [5, 21]: 2.18 µM; Solubility (class in words) [5]: Sligthly"
CC1(C)Cc2cccc(OCC(=O)Nc3nc4ccccc4s3)c2O1 [Compound E25],42.6,,4,1.11,4.46,4,6.59,50.6,1.11,4.46,1.12,5.88,3.04,comparable inhibition of invasion,0.552,2510,1.25,1.26,1.21,1.4,"Papp A→B at 120 min, 10 μM ([3]; Caco-2, pH 7.4, Papp A2B Replicate 2, HBSS/HBSS, pH 7.4/7.4): 1.11 ×10⁻⁶ cm/s; pEC50 (DAOY cells; Homo sapiens, Daoy, DAOY cells, n = 3 technical replicas, read-out: EC50 for the inhibition of bFGF-induced collagen I invasion): 5.12; MTT (MEC) Minimum effective concentration [1]: 42.6 µM; AC50 at 72 h [2, 16]: 58.7 µM; solubility [5, 22]: 1.12 µM; solubility thermodynamic [5, 21]: 1.25 µM; Solubility (class in words) [5]: Sligthly"
"CC(=O)CC(c1ccccc1)c1c(O)c2ccccc2oc1=O (stereo not drawn) [warfarin, reference compound]",,,,,,,,,,,,,,,,,,> 100,,,solubility ([5]; read-out: Mean Solubility): >100 µM; solubility ([5]; read-out: Solubility Replicate 2): >100 µM; solubility ([5]; read-out: Solubility Replicate 3): >100 µM; solubility ([5]; read-out: Solubility Replicate 4): >100 µM
"CN(C)CCCN1c2ccccc2Sc2ccc(Cl)cc21 [Chlorpromazine, reference compound]",10.7,12.9,,,,,,,,,,,,,,,,,,,
"COC(=O)C1=C(C)NC(C)=C(C(=O)OCCN(C)Cc2ccccc2)C1c1cccc([N+](=O)[O-])c1 (stereo not drawn) [nicardipine, reference compound]",,,,,,,,,,,,,,,,,29.8,34.3,29.6,31.2,"solubility [5, 22]: 24.2 µM"
